Results reported in patent US20250375475A1 (priority 2024, published 2025).

Assays:
[1] = natural zinc, blood to brain across the BBB; cited from earlier work
microglia = experiment: Reactive oxygen species in microglia (FIG. 6)
microglia/macrophages = settings: FIG. 7; LPS-lesioned rats
CD206 = CD206 expression (FIG. 5)
circulating leukocytes = experiment: Absolute number of circulating leukocytes (FIG. 3); settings: rodents
astroglia = settings: FIG. 2

Row | Compound | zinc in the blood taken up by brain tissues [1] | reactive oxygen species in microglia (microglia) | oxidative stress as indicated by metabolic characteristics of microglia/macrophages (microglia/macrophages) | GFAP in blood (GFAP; FIG. 1A, blood) | GFAP in the brain and periphery (GFAP; FIG. 1B, brain and periphery) | CD206 expression (CD206) | absolute number of circulating leukocytes (circulating leukocytes) | inflammation as evidenced by astroglia (astroglia)
1 | [Zn] [zinc] | 2-3% | – | – | – | – | – | – | –
2 | ^64Zn L-Aspartate | – | reduction | significantly reduced oxidative stress | significant reduction | significant reduction | reduction | normalization | lowered the inflammation significantly
